Experimental data published in ChEMBL document CHEMBL5042549, “Discovery of Inhibitors of the Lipopolysaccharide Transporter MsbA: From a Screening Hit to Potent Wild-Type Gram-Negative Activity” (J Med Chem, 2022).
pIC50: −log10 of the molar value. ≈ marks a conversion by molar mass, not a printed value. Where “and” joins values, the source holds several entries; their conditions need not be identical. Equal entries are not always repeated. Calls of active or inactive are those of the source. No cut-off for these calls is given here.

Experiments:
[1] = system: Enterobacter cloacae; test: Antibacterial activity against wild type Enterobacter cloacae (ATCC 13047) assessed as bacterial growth inhibition by broth microdilution assay; type: functional
[2] = Half life in CD-1 mouse at 1 mg/kg, iv measured upto 8 hrs by LC-MS/MS analysis; type: ADME, organism-based; details: in vivo
[3] = system: Escherichia coli; test: Antibacterial activity against wild type Escherichia coli MG1655 msbA-cKO lptD (imp4213) expressing Escherichia coli MsbA assessed as bacterial growth inhibition by broth microdilution assay; type: functional
[4] = system: Escherichia coli; test: Antibacterial activity against wild type Escherichia coli MG1655 msbA-cKO lptD (imp4213) expressing Acinetobacter baumannii MsbA assessed as bacterial growth inhibition by broth microdilution assay; type: functional
[5] = system: Acinetobacter baumannii; test: Antibacterial activity against wild type Acinetobacter baumannii (ATCC 17978) assessed as bacterial growth inhibition by broth microdilution assay; type: functional
[6] = Lipophilicity, logD of compound by shake flask method; type: physicochemical; details: octanol/water
[7] = system: Enterobacter cloacae; test: Antibacterial activity against wild type Enterobacter cloacae (ATCC 13047) assessed as membrane stacking at 50 microM by electron microscopy; type: functional, organism-based
[8] = Clearance in CD-1 mouse at 1 mg/kg, iv measured upto 8 hrs by LC-MS/MS analysis; type: ADME, organism-based; details: in vivo
[9] = system: Escherichia coli; test: Selectivity ratio of MIC for Escherichia coli MG1655 msbA-cKO lptD (imp4213) […]; type: functional
[10] = system: Klebsiella pneumoniae; test: Antibacterial activity against wild type Klebsiella pneumoniae MGH78578 (ATCC 700721) assessed as bacterial growth inhibition by broth microdilution assay; type: functional
[11] = system: Escherichia coli; test: Antibacterial activity against wild type Escherichia coli CFT073 (ATCC 700928) assessed as bacterial growth by broth microdilution assay; type: functional
[12] = system: Klebsiella pneumoniae; test: Antibacterial activity against wild type Klebsiella pneumoniae MGH78578 (ATCC 700721) assessed as membrane stacking at 50 microM by electron microscopy; type: functional, organism-based
[13] = system: Escherichia coli; test: Antibacterial activity against wild type Escherichia coli CFT073 (ATCC 700928) assessed as induction of cell lysis at 50 microM by electron microscopy; type: functional, organism-based
[14] = Inhibition of Escherichia coli MsbA preincubated for 10 mins followed by ATP addition and incubated for 1 hr by fluorescence polarization assay
[15] = system: Pseudomonas aeruginosa; test: Antibacterial activity against wild type Pseudomonas aeruginosa PA14 assessed as bacterial growth inhibition by broth microdilution assay; type: functional

C[C@H](Oc1ccc2ccc(/C=C/c3nn[nH]n3)c(C3CC3)c2c1)c1c(Cl)cccc1Cl showed an MIC [1] of 6 µM (≈ 2.71 µg/mL), a half-life [2] of 1.4 h and an MIC [3] of 0.8 µM (≈ 0.361 µg/mL). For the same compound, the MIC [4] was > 71 µM, the MIC [5] was > 100 µM and the logD [6] was 4.3. The Activity [7] was “Active”, the clearance [8] was 8 mL/min/kg and the Selectivity ratio [9] was > 89. For the same compound, the MIC [10] was 6 µM (≈ 2.71 µg/mL), the MIC [11] was 6 µM and 2.7 µg/mL and the Activity [12] was “Active”. For the same compound, the Activity [13] was “Active”, the pIC50 [14] was 8.52 and the MIC [15] was > 100 µM.
